Laboratory results as given in US9005677B2, “Autophagy enhancer for treatment of neurodegenerative diseases” (Macau University of Science and Technology, priority 2013, dated 2015).

System: GFP-LC3 puncta formation in PC12 cells
Experiment: Quantification of autophagy GFP-LC3 puncta
Format: cell-based, rat
Conditions: fluorescent microscopy
Method: Quantification of autophagy GFP-LC3 Puncta. GFP-LC3 puncta formation was quantified as described previously. In brief, cells grown on coverslips in a 6-well plate were fixed in 4% paraformaldehyde for 20 minutes at room temperature and then rinsed with PBS. Slides were mounted with FluorSave™ mounting media (Calbiochem, San Diego, Calif.) and examined by fluorescence microscopy. The number of GFP-positive cells with GFP-LC3 puncta formation was examined under the Nikon ECLIPSE 80i microscope. Representative images were captured with CCD digital camera Spot RT3™ (Diagnostic Instruments, Inc., Melville, N.Y.). To quantify autophagy, the percentage of cells with punctate GFP-LC3 fluorescence was calculated by counting the number of the cells with punctate GFP-LC3 fluorescence in GFP-positive cells. A minimum of 150 cells from 3 randomly selected fields was scored.

SMILES | GFP-LC3 puncta formation
CC1(C)CCC2(C(=O)O)C(O)CC3(C)C(=CCC4C5(C)CC(O)C(O)C(C)(CO)C5CCC43C)C2C1 (centres unmarked) [polygalacic acid] | no autophagy activity
CC1(C)CC[C@]2(C(=O)O)CCC3=C([C@@H](CCl)C[C@@H]4[C@@]5(C)C[C@H](O)[C@H](O)[C@@](C)(C(=O)O)[C@@H]5CC[C@@]34C)[C@@H]2C1 [senegenin] | no autophagy activity
